Results: patent US9040545B2, “Heterocyclyl pyrazolopyrimidine analogues as selective JAK inhibitors” (Cellzome Limited, priority 2010, dated 2015)

Molecular target: T1, Aurora B (Homo sapiens, UniProt Q96GD4)
T1 construct: cell lysates from Jurkat cells (ATCC TIB-152) used; endogenous in cells; host or cells: Jurkat cells (ATCC TIB-152), treated with pervanadate
Assay: Kinobeads assay, Aurora B
Assay type: binding
Settings: for IC50: lysate of pervanadate-treated Jurkat cells, read-out: Inhibition values (IC50) Aur B
Method: The compounds of the present invention as described in the previous examples were tested in a Kinobeads™ assay as described for ZAP-70 (WO-A 2007/137867). Briefly, test compounds (at various concentrations) and the affinity matrix with the immobilized aminopyrido-pyrimidine ligand 24 were added to cell lysate aliquots and allowed to bind to the proteins in the lysate sample. After the incubation time the beads with captured proteins were separated from the lysate. Bound proteins were then eluted and the presence of JAK2 and JAK3 was detected and quantified using specific antibodies in a dot blot procedure and the Odyssey infrared detection system. Dose response curves for individual kinases were generated and IC50 values calculated. Kinobeads™ assays for ZAP-70 (WO-A 2007/137867) and for kinase selectivity profiling (WO-A 2006/134056) have been previously described.
The affinity matrix was washed two times with 15 mL of 1×DP buffer containing 0.2% NP40 (IGEPAL® CA-630, Sigma, #I3021) and then resuspended in 1×DP buffer containing 0.2% NP40 (3% beads slurry).
5×DP buffer 250 mM Tris-HCl pH 7.4, 25% Glycerol, 7.5 mM MgCl2, 750 mM NaCl, 5 mM Na3VO4; filter the 5×DP buffer through a 0.22 μm filter and store in aliquots at −80° C. The 5×DP buffer is diluted with H2O to 1×DP buffer containing 1 mM DTT and 25 mM NaF.
Stock solutions of test compounds were prepared in DMSO. In a 96 well plate 30 μL solution of diluted test compounds at 5 mM in DMSO were prepared. Starting with this solution a 1:3 dilution series (9 steps) was prepared. For control experiments (no test compound) a buffer containing 2% DMSO was used.
Cell lysate (approximately 50 mg protein per plate) was thawed in a water bath at room temperature and then stored on ice. To the thawed cell lysate 1×DP 0.8% NP40 buffer containing protease inhibitors (1 tablet for 25 mL buffer; EDTA-free protease inhibitor cocktail; Roche Diagnostics 1873580) was added in order to reach a final protein concentration of 10 mg/mL total protein. The diluted cell lysate was stored on ice. Mixed Molt4/Ramos lysate was prepared by combining one volume of Molt4 lysate and two volumes of Ramos lysate (ratio 1:2).
To a 96 well filter plate (Multiscreen HTS, BV Filter Plates, Millipore #MSBVN1250) were added per well: 100 μL affinity matrix (3% beads slurry), 3 μL of compound solution, and 50 μL of diluted lysate. Plates were sealed and incubated for 3 hours in a cold room on a plate shaker (Heidolph tiramax 1000) at 750 rpm. Afterwards the plate was washed 3 times with 230 μL washing buffer (1×DP 0.4% NP40). The filter plate was placed on top of a collection 1 plate (Greiner bio-one, PP-microplate 96 well V-shape, 65120) and the beads were then eluted with 20 μL of sample buffer (100 mM Tris, pH 7.4, 4% SDS, 0.00025% bromophenol blue, 20% glycerol, 50 mM DTT). The eluate was frozen quickly at −80° C. and stored at −20° C.
The kinases in the eluates were detected and quantified by spotting on nitrocellulose membranes and using a first antibody directed against the kinase of interest and a fluorescently labelled secondary antibody (anti-rabbit IRDye™ antibody 800 (Licor, #926-32211). The Odyssey Infrared Imaging system from LI-COR Biosciences (Lincoln, Nebr., USA) was operated according to instructions provided by the manufacturer (Schutz-Geschwendener et al, 2004. Quantitative, two-color Western blot detection with infrared fluorescence. Published May 2004 by LI-COR Biosciences, www.licor.com).
After spotting of the eluates the nitrocellulose membrane (BioTrace NT; PALL, #BTNT30R) was first blocked by incubation with Odyssey blocking buffer (LICOR, 927-40000) for 1 hour at room temperature. Blocked membranes were then incubated for 16 hours at the temperature shown in Table 5 with the first antibody diluted in Odyssey blocking buffer (LICOR #927-40000). Afterwards the membrane was washed twice for 10 minutes with PBS buffer containing 0.2% Tween 20 at room temperature. […]

T1 sequence (Q96GD4 whole entry): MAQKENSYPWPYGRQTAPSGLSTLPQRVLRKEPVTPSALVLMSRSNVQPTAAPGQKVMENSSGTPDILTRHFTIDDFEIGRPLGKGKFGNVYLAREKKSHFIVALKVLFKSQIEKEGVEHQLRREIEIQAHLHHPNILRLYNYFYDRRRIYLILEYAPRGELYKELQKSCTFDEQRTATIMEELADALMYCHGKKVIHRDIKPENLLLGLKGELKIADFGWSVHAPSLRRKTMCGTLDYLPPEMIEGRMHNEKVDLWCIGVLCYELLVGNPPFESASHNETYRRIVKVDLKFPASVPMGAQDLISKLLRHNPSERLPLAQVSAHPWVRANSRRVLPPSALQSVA

Structure (SMILES) | JAK3/AurB Fold Selectivity | IC50
C[C@@H]1COCCN1c1cccc(Cn2ncc3cnc(Nc4cnn(C)c4)nc32)n1 [Example 1, (R)—N-(1-Methyl-1H-pyrazol-4-yl)-1-((6-(3-methylmorpholino)pyridin-2-yl)methyl)-1H-pyrazolo[3,4-d]pyrimidin-6-amine] | 10-50 Fold | 1000 to 10000 nM
CN(C)CC(F)Cn1cc(Nc2ncc3cnn(Cc4cc(F)cc(N5CCOCC5=O)c4)c3n2)cn1 (centres unmarked) [Example 97, 4-(3-((6-((1-(3-(dimethylamino)-2-fluoropropyl)-1H-pyrazol-4-yl)amino)-1H-pyrazolo[3,4-d]pyrimidin-1-yl)methyl)-5-fluorophenyl)morpholin-3-one] | >50 Fold | 1000 to 10000 nM
Cn1cc(Nc2ncc3cnn(Cc4cccc(N5CCNCC5=O)c4)c3n2)cn1 [Example 36, 1-(3-((6-((1-Methyl-1H-pyrazol-4-yl)amino)-1H-pyrazolo[3,4-d]pyrimidin-1-yl)methyl)phenyl)piperazin-2-one] | 10-50 Fold | 1000 to 10000 nM
Cn1cc(Nc2ncc3cnn(Cc4cccc(N5CCOCC5)c4F)c3n2)cn1 [Example 21, 1-(2-Fluoro-3-morpholinobenzyl)-N-(1-methyl-1H-pyrazol-4-yl)-1H-pyrazolo[3,4-d]pyrimidin-6-amine] | >50 Fold | 1000 to 10000 nM
Cn1cc(Nc2ncc3cnn(Cc4cccc(C(=O)N5CCOCC5)c4)c3n2)cn1 [Example 6, (3-((6-((1-Methyl-1H-pyrazol-4-yl)amino)-1H-pyrazolo[3,4-d]pyrimidin-1-yl)methyl)phenyl)(morpholino)methanone] | >50 Fold | 1000 to 10000 nM
O=C(CCn1cc(Nc2ncc3cnn(Cc4cccc(N5CCOCC5)c4)c3n2)cn1)N1CCCCC1 [Example 20, 3-(4-((1-(3-Morpholinobenzyl)-1H-pyrazolo[3,4-d]pyrimidin-6-yl)amino)-1H-pyrazol-1-yl)-1-(piperidin-1-yl)propan-1-one] | >50 Fold | 1000 to 10000 nM
Cn1cc(Nc2ncc3cnn(Cc4cccc(N5CCOCC5)c4)c3n2)cn1 [Example 2, N-(1-Methyl-1H-pyrazol-4-yl)-1-(3-morpholinobenzyl)-1H-pyrazolo[3,4-d]pyrimidin-6-amine] | >50 Fold | 1000 to 10000 nM
Cn1cc(Nc2ncc3cnn(Cc4cccc(N5CC6(COC6)C5)c4)c3n2)cn1 [Example 89, 1-(3-(2-oxa-6-azaspiro[3.3]heptan-6-yl)benzyl)-N-(1-methyl-1H-pyrazol-4-yl)-1H-pyrazolo[3,4-d]pyrimidin-6-amine] | >50 Fold | 1000 to 10000 nM
Cn1cc(Nc2ncc3cnn(Cc4cccc(-c5cnn(CC(N)=O)c5)c4)c3n2)cn1 [Example 120, 2-(4-(3-((6-((1-methyl-1H-pyrazol-4-yl)amino)-1H-pyrazolo[3,4-d]pyrimidin-1-yl)methyl)phenyl)-1H-pyrazol-1-yl)acetamide] | >50 Fold | 1000 to 10000 nM
CN(C)CCCn1cc(Nc2ncc3cnn(Cc4cccc(N5CCOCC5)c4)c3n2)cn1 [Example 4, N-(1-(3-(Dimethylamino)propyl)-1H-pyrazol-4-yl)-1-(3-morpholinobenzyl)-1H-pyrazolo[3,4-d]pyrimidin-6-amine] | >50 Fold | 100 to 1000 nM
Cn1cc(Nc2ncc3cnn(Cc4cccc(N5CCNCC5)c4)c3n2)cn1 [Example 22, N-(1-Methyl-1H-pyrazol-4-yl)-1-(3-(piperazin-1-yl)benzyl)-1H-pyrazolo[3,4-d]pyrimidin-6-amine] | >50 Fold | 100 to 1000 nM
Cn1cc(Nc2ncc3cnn(Cc4cccc(N5CCN(S(C)(=O)=O)CC5)c4)c3n2)cn1 [Example 100, N-(1-methyl-1H-pyrazol-4-yl)-1-(3-(4-(methylsulfonyl)piperazin-1-yl)benzyl)-1H-pyrazolo[3,4-d]pyrimidin-6-amine] | 10-50 Fold | 1000 to 10000 nM
OCCn1cc(Nc2ncc3cnn(Cc4cc(F)cc(N5CCNCC5)c4)c3n2)cn1 [Example 93, 2-(4-((1-(3-fluoro-5-(piperazin-1-yl)benzyl)-1H-pyrazolo[3,4-d]pyrimidin-6-yl)amino)-1H-pyrazol-1-yl)ethanol] | 10-50 Fold | 100 to 1000 nM
CCn1cc(-c2cccc(Cn3ncc4cnc(Nc5cnn(C)c5)nc43)c2)cn1 [Example 116, 1-(3-(1-ethyl-1H-pyrazol-4-yl)benzyl)-N-(1-methyl-1H-pyrazol-4-yl)-1H-pyrazolo[3,4-d]pyrimidin-6-amine] | >50 Fold | 1000 to 10000 nM
Cn1cc(Nc2ncc3cnn(Cc4c(F)c(F)cc(C(=O)N5CCOCC5)c4F)c3n2)cn1 [Example 110, morpholino(2,4,5-trifluoro-3-((6-((1-methyl-1H-pyrazol-4-yl)amino)-1H-pyrazolo[3,4-d]pyrimidin-1-yl)methyl)phenyl)methanone] | 3-10 Fold | 100 to 1000 nM

Continued, values first:

JAK3/AurB Fold Selectivity | IC50 | Structure (SMILES)
10-50 Fold | 100 to 1000 nM | Cn1cc(Nc2ncc3cnn(Cc4cccc(C5CCOCC5)c4)c3n2)cn1 [Example 9, N-(1-Methyl-1H-pyrazol-4-yl)-1-(3-(tetrahydro-2H-pyran-4-yl)benzyl)-1H-pyrazolo[3,4-d]pyrimidin-6-amine]
10-50 Fold | 100 to 1000 nM | CN1CCN(c2cccc(Cn3ncc4cnc(Nc5cnn(C)c5)nc43)c2)CC1 [Example 10, N-(1-Methyl-1H-pyrazol-4-yl)-1-(3-(4-methylpiperazin-1-yl)benzyl)-1H-pyrazolo[3,4-d]pyrimidin-6-amine]
10-50 Fold | 100 to 1000 nM | O=C1COCCN1c1cc(F)cc(Cn2ncc3cnc(Nc4cnn(CC5CCNC5)c4)nc32)c1 (centres unmarked) [Example 101, 4-(3-fluoro-5-((6-((1-(pyrrolidin-3-ylmethyl)-1H-pyrazol-4-yl)amino)-1H-pyrazolo[3,4-d]pyrimidin-1-yl)methyl)phenyl)morpholin-3-one]
10-50 Fold | 100 to 1000 nM | Cn1cc(Nc2ncc3cnn(Cc4cccc(N5CCOCC5=O)c4)c3n2)cn1 [Example 27, 4-(3-((6-((1-Methyl-1H-pyrazol-4-yl)amino)-1H-pyrazolo[3,4-d]pyrimidin-1-yl)methyl)phenyl)morpholin-3-one]
10-50 Fold | 100 to 1000 nM | Cn1cc(Nc2ncc3cnn(Cc4cccc(NC5COC5)c4)c3n2)cn1 [Example 114, N-(1-methyl-1H-pyrazol-4-yl)-1-(3-(oxetan-3-ylamino)benzyl)-1H-pyrazolo[3,4-d]pyrimidin-6-amine]
10-50 Fold | 100 to 1000 nM | Cc1c(Cn2ncc3cnc(Nc4cnn(C)c4)nc32)cccc1N1CCOCC1 [Example 11, N-(1-Methyl-1H-pyrazol-4-yl)-1-(2-methyl-3-morpholinobenzyl)-1H-pyrazolo[3,4-d]pyrimidin-6-amine]
10-50 Fold | 100 to 1000 nM | O=C1COCCN1c1cccc(Cn2ncc3cnc(Nc4cnn(CCO)c4)nc32)c1 [Example 29, 4-(3-((6-((1-(2-Hydroxyethyl)-1H-pyrazol-4-yl)amino)-1H-pyrazolo[3,4-d]pyrimidin-1-yl)methyl)phenyl)morpholin-3-one]
